{"source": "patent US9233067B2", "about": "“Silk particles for controlled and sustained delivery of compounds” (Amsilk GmbH, priority 2009, dated 2016)", "key": {"[1]": {"test": "Calculated apparent distribution coefficient (log D)", "conditions": "pH 7; calculated from log P and pKa", "description": "Further, the distribution between a hydrophobic and a hydrophilic phase of two different species of a specific drug, i.e. the native and the protonated form, can be described by its apparent distribution coefficient (log D), which can be calculated with equations (3) and (4) respectively. for acids: log D=log P−log(1+10^pH-pKa) (3) for bases: log D=log P−log(1+10^pKa-pH) (4)"}, "[2]": {"test": "Properties of small molecular weight model drugs (Table 1)", "assay_type": "physicochemical", "conditions": "for Predominant charge at pH7: pH 7, aqueous media", "procedure": "All drugs were dissolved in water at a concentration of 0.21 μmol/ml. Drug substances and their featured properties are depicted in Table 1. The main selection criteria were solubility in aqueous media (expressed by the octanol/water partition coefficient (log P)), the acidic dissociation constant (pKa for protonated bases (BH+) or for acids (HA)) and the resulting net-charge in aqueous media (predominant or permanent charge)."}, "[3]": {"conditions": "cited from earlier work; for log P: octanol/water, individual unprotonated forms; for Dissociation constant of BH^+(pKa): protonated base"}, "[4]": {"test": "In vitro release from drug loaded eADF4(C16) particles", "assay_type": "physicochemical", "conditions": "power law fit", "procedure": "Drug loaded eADF4(C16) particles were washed with distilled water and suspended in 1 ml PBS (pH 7.4) before incubation at 37° C. with constant shaking. Each vial contained 2 mg of drug loaded particles containing […] spider silk protein. The solvent was periodically removed from each sample and replaced with fresh PBS (pH 7.4). The drug content in the medium was then analyzed using UV-Vis-spectrometry. The percentage of cumulative model drug release (% w/w) was investigated as a function of incubation time. Each experiment was performed in triplicate. To study the effect of different pH values on the release behaviour of drug loaded eADF4(C16) particles, 1 mg drug loaded silk particles were incubated in 1.0 ml PBS at 5 different pH values (pH 2, 4, 6, 7.4 and 8.8) for 5 days. The solvent was withdrawn daily and the particles were redispersed in fresh media. Supernatants of drawn samples were analyzed for drug content determination with UV-Vis-spectrometry.\n[formula] where Mt/M∞ is the fractional amount of the drug released at time t, k is a characteristic constant of the system, and exponent n is related to the geometrical shape of the formulation and is indicative of the mechanism of drug release. The semi-empirical power law can be seen as a generalization of two independent mechanisms of drug transport, Fickian diffusion and Case II transport, reflecting the influence of polymer relaxation on molecules' movement in the matrix. For spherical systems the limiting value of n, when pure Fickian diffusion or pure Case II transport is operating, were determined to be equal to 0.43 and 0.85, respectively. When n is between 0.43 and 0.85, a superposition of both transport processes occurs which is known as anomalous transport. In order to obtain a linear fit for the drug release data, equation (5) was modified leading to equation (6),\n[formula] where n can be calculated from the slope of the log-log plot of release Mt/M∞ versus time t by linear fitting (FIG. 4d). Therefrom, three time intervals with different dominating release mechanisms could be identified excluding the initial burst region (<24 h). To distinguish between different time intervals, the criterion that the coefficient r2 had to be above 0.99 for the individual linear fits was employed. For validation of the determined release parameters, the experimental release data were compared with theoretical data obtained by the semi-empirical power law employing the determined values for k and n. A very good agreement from post-initial burst stage (>24 hours) up to 100% release was obtained (FIG. 4 a). Since only release data after 24 hours were considered for calculation of release parameters (k and n), the initial burst is underestimated by theoretical data (FIG. 4 b)."}, "[5]": {"conditions": "pH of 7.0; cited from earlier work"}, "[6]": {"test": "Zeta potential analysis", "assay_type": "physicochemical", "conditions": "lysozyme loading up to 30%; pH 7.0/30 mM", "procedure": "In order to elucidate and characterize the loading mechanism of eADF4(C16) particles with model drugs, zeta potential measurements were conducted as a function of amount of model drug added. The zeta potential was determined using a Nanoseries Malvern Zetasizer (Malvern, Worcestershire, UK). Automatic titration was conducted with a Malvern Multipurpose Titrator MPT-2. Experiments were performed in distilled water (pH 7) at 25° C. Each measurement was performed in triplicate."}, "[7]": {"test": "Particle size of lysozyme loaded C16 spider silk particles (dynamic light scattering)", "assay_type": "physicochemical", "conditions": "particles loaded with approximately 10% [w/w] lysozyme", "procedure": "The loading procedure as applied in example 6 was modulated and implemented as follows: A stock dispersion of spider silk particles was centrifuged and redispersed in the desired buffer media before loading. A second stock solution comprising lysozyme was prepared by dissolving lyophilized lysozyme in an identical buffer solution. […] After 30 minutes of incubation at room temperature under gentle agitation, 20 μl of the resulting particle suspension were used for dynamic light scattering measurements. Simultaneously, samples were centrifuged and the supernatant was analyzed for residual protein content using the Micro BCA Protein Assay Kit (Thermo Scientific). Encapsulation efficiencies and loading were determined according to example 6 by using equation (1) and (2), respectively."}}, "note": "“Also recorded” adds a separate entry of the source. Structures can show the parent of a compound that is named as a salt.", "data": [{"compound": "CN[C@@H](C)[C@H](O)c1ccccc1", "note": "[Ephedrine*HCl, Ephedrine]", "values": [{"measurement": "log D", "setting": "[1]", "value": "−1.321"}, {"measurement": "Permanently charged", "setting": "[2]", "value": "no"}, {"measurement": "Predominant charge at pH7", "setting": "[2]", "value": "positive"}, {"measurement": "log P", "setting": "[3]", "value": 1.30}]}, {"compound": "CCOc1ccc2nc3cc(N)ccc3c(N)c2c1", "note": "[Ethacridine lactate]", "values": [{"measurement": "log D", "setting": "[1]", "value": 2.899}, {"measurement": "Permanently charged", "setting": "[2]", "value": "no"}, {"measurement": "Predominant charge at pH7", "setting": "[2]", "value": "positive"}, {"measurement": "k (characteristic constant)", "setting": "[4]; time 0-13 d", "value": 1.25}, {"measurement": "n (release exponent)", "setting": "[4]; time 0-13 d", "value": "00.6754"}, {"measurement": "n (release exponent)", "setting": "[4]; time 0-13 d, listed as ethacridine lactate", "value": 0.6754}, {"measurement": "k (characteristic constant)", "setting": "[4]; time 14-20 d", "value": 3.18}, {"measurement": "n (release exponent)", "setting": "[4]; time 14-20 d", "value": 0.5083}, {"measurement": "n (release exponent)", "setting": "[4]; time 14-20 d, listed as ethacridine lactate", "value": 0.51}, {"measurement": "k (characteristic constant)", "setting": "[4]; time >20 d", "value": 14.4}, {"measurement": "n (release exponent)", "setting": "[4]; time >20 d", "value": 0.2641}, {"measurement": "log P", "setting": "[3]", "value": 2.50}, {"measurement": "Dissociation constant of BH^+(pKa)", "setting": "[3]", "value": 11.00}]}, {"compound": "COc1ccc(Cc2nccc3cc(OC)c(OC)cc23)cc1OC", "note": "[Papaverine*HCl, Papaverine]", "values": [{"measurement": "log D", "setting": "[1]", "value": 2.395}, {"measurement": "Permanently charged", "setting": "[2]", "value": "no"}, {"measurement": "Predominant charge at pH7", "setting": "[2]", "value": "positive"}, {"measurement": "log P", "setting": "[3]", "value": 3.50}, {"measurement": "Dissociation constant of BH^+(pKa)", "setting": "[3]", "value": 8.07}]}, {"compound": "O=S1(=O)OC(c2ccc(O)cc2)(c2ccc(O)cc2)c2ccccc21", "note": "[Phenol red]", "values": [{"measurement": "log P", "setting": "[3]", "value": 3.00}]}, {"compound": "CCN(CC)CCOC(=O)c1ccc(N)cc1", "note": "[Procaine*HCl, Procaine]", "values": [{"measurement": "log D", "setting": "[1]", "value": 0.396}, {"measurement": "Permanently charged", "setting": "[2]", "value": "no"}, {"measurement": "Predominant charge at pH7", "setting": "[2]", "value": "positive"}, {"measurement": "log P", "setting": "[3]", "value": 2.40}, {"measurement": "Dissociation constant of BH^+(pKa)", "setting": "[3]", "value": 8.05}]}, {"compound": "CC(C)NCC(O)COc1cccc2ccccc12", "note": "(stereo not drawn) [Propranolol*HCl, Propranolol]", "values": [{"measurement": "Permanently charged", "setting": "[2]", "value": "no"}, {"measurement": "Predominant charge at pH7", "setting": "[2]", "value": "positive"}]}, {"compound": "CCCCNc1ccc(C(=O)OCCN(C)C)cc1", "note": "[Tetracaine*HCl, Tetracaine]", "values": [{"measurement": "log D", "setting": "[1]", "value": 2.773}, {"measurement": "Permanently charged", "setting": "[2]", "value": "no"}, {"measurement": "Predominant charge at pH7", "setting": "[2]", "value": "positive"}, {"measurement": "log P", "setting": "[3]", "value": 4.00}]}, {"compound": "Lysozyme: protein compound with an isoelectric point of 11.35 and a molecular weight of 14.3 kDa", "values": [{"measurement": "net charge", "setting": "[5]", "value": "positive"}, {"measurement": "change in the zeta-potential of particles", "setting": "[6]", "value": "did not show a significant change"}, {"measurement": "particle size compared to unloaded spider silk particles", "setting": "[7]", "value": "no increase in size; also recorded: did not differ"}]}, {"compound": "Methyl violet", "values": [{"measurement": "Permanently charged", "setting": "[2]", "value": "yes"}, {"measurement": "Predominant charge at pH7", "setting": "[2]", "value": "positive"}, {"measurement": "k (characteristic constant)", "setting": "[4]; time 0-13 d", "value": 1.17}, {"measurement": "n (release exponent)", "setting": "[4]; time 0-13 d", "value": 0.692}, {"measurement": "k (characteristic constant)", "setting": "[4]; time 14-20 d", "value": 1.92}, {"measurement": "n (release exponent)", "setting": "[4]; time 14-20 d", "value": 0.6079}, {"measurement": "n (release exponent)", "setting": "[4]; time 14-20 d, listed as methyl violet", "value": 0.61}, {"measurement": "k (characteristic constant)", "setting": "[4]; time >20 d", "value": 9.20}, {"measurement": "n (release exponent)", "setting": "[4]; time >20 d", "value": 0.3537}, {"measurement": "log P", "setting": "[3]", "value": 3.20}]}, {"compound": "Nerve growth factor: protein with an isoelectric point of 9.5 and a molecular weight of 13 kDa", "values": [{"measurement": "net charge", "setting": "[5]", "value": "positively charged"}]}]}
